{"source": "patent US9499811B2", "about": "“Ligation enhancement” (New England Biolabs, Inc., priority 2011, dated 2016)", "key": {"T4 DNA ligase [1]": {"molecular_target": "T1, T4 DNA ligase (Enterobacteria phage T4, UniProt P00970)", "T1 sequence (P00970 1-487)": "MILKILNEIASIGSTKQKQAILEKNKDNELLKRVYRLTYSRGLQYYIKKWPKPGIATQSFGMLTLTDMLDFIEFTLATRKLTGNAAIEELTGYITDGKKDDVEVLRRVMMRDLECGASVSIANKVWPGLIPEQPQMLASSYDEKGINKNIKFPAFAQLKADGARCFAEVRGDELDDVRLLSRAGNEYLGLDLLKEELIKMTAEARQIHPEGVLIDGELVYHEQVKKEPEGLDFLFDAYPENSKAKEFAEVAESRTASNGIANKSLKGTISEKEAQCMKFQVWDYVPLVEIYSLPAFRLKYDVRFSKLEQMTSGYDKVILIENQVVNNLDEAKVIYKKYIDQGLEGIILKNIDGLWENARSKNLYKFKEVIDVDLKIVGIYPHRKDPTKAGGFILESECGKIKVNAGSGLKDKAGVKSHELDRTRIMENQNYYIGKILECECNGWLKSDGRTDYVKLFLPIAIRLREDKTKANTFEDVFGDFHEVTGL", "assay": "Ligation of one, two or three pUC19 fragments with single-base overhangs, transformation and gel analysis", "format": "biochemical", "set-up": "purchased NEB (New England Biolabs), Ipswich, Mass. #M0202", "conditions": "for Ligation/Subsequent Transformation Enhancement: 12% 1,2-PrD vs none; for Transformation Efficiency +1,2-PrD / Resultant Colonies +1,2-PrD: 12% 1,2-PrD; for Resultant Colonies +1,2-PrD: 20 pg DNA plated", "description": "FIGS. 4A-C show agarose gel electrophoresis analysis of ligation products achieved using +/−12% 1,2-PrD for one, two and three pUC19 fragment sets as described in FIGS. 3A-C. The marker lane indicated by M corresponds to 1 μg of a 2-log DNA ladder, New England Biolabs, Inc. (NEB), Ipswich, Mass., #3200. (1) is a 2686-bp linear AhdI-pUC19 fragment; (2) are 1527-bp and 1159-bp BciVI fragments; (3) are 2 lengths (2275-bp and 287-bp) of 3 BccI fragments where the third 124-bp fragment is not visible on the gel; (4) is a linearized intermediate ligation product formed by 2275-bp and 287-bp BccI fragments; (5) is the desired ligated/circularized plasmid which is a highly transformable desired product; and (6) are different kinds of linear and circular undesired concatameric ligation products which are not highly transformable.\n(§1) For chemically competent cell transformations, the cell-DNA mixture was incubated on ice for 30 min, heat-shocked at 42° C. for 30 sec, then returned to ice for 5 min. A volume of 950 μl SOC medium (2% vegetable peptone or Tryptone, 0.5% yeast extract, 10 mM NaCl, 2.5 mM KCl, 10 mM MgCl2, 10 mM MgSO4 and 20 mM glucose) was added to the cell-DNA mixture, followed by a one hr 37° C. outgrowth period with agitation. A volume of 25-50 μl of appropriately diluted cells in SOC was spread onto Rich Agar plates (composition per liter: 10 g soy peptone, 5 g yeast extract, 10 g NaCl, 1 g MgCl2-6H2O, 1 g dextrose, 15 grams agar) supplemented with 100 μg/ml ampicillin. Plates were inverted and incubated for 16 hrs at 37° C., followed by quantification of total colony numbers.\nSingle fragment ligation (recircularization), two fragment ligation (cloning) and three fragment ligation (assembly) reactions were performed in the presence of 1,2-PrD (see FIGS. 3A-C). Restriction digests of pUC19 plasmid constructs were performed to completion by monitoring the reactions using 1% agarose gel electrophoresis. Upon completion all restriction enzymes were heat-inactivated by incubating the reaction for 20 min at 65° C. The DNA was purified by use of QiaQuick® (Qiagen, Valencia, Calif.) spin columns and quantified by comparison to known DNA standards by 1% agarose gel electrophoresis. […] Ligation reactions were performed as described in FIGS. 3A-C using 100 ng of DNA that had been restricted by AhdI, BciVI or BccI to leave a variety of single-base overhangs. From each 21 μl ligation reaction, 2 μl was used for transformation as analyzed in Table 4 and 19 μl was run on a 1% agarose gel prepared with tris-borate as described in FIGS. 4A-C. […] This is the highly transformable DNA circularized form.\nThe ligations took place with and without 12% 1,2-PrD present for 10 min at room temperature (25° C.) with 2000 units T4 DNA ligase. A volume of 2 μl from each ligation reaction was transformed into chemically competent DH5 alpha cells as described in Example 1. A volume of 40 μl of a 1:20 dilution of the outgrowth in SOC medium was plated on medium Rich Agar plates supplemented with ampicillin. This volume corresponded to 20 pg of DNA from the original ligation reaction."}, "T4 DNA ligase [2]": {"molecular_target": "T1, T4 DNA ligase", "assay": "Cloning of inserts with single-base 3'A overhangs into Qiagen cloning vector, ligation and subsequent transformation", "format": "biochemical", "set-up": "purchased NEB (New England Biolabs), Ipswich, Mass. #M0202", "conditions": "6% 1,2-PrD", "description": "This test used a commercially available cloning vector from Qiagen, Valencia, Calif. (#231124) specifically designed to clone DNA fragments with single-base 3′A overhangs.\nThe reaction mixtures contained DNA at 50-100 ng and 1,2-PrD at different concentrations. 1 μl of regular concentration (NEB, Ipswich, Mass., #M0202; 400 units) or 1 μl of high concentration T4 DNA ligase (NEB, Ipswich, Mass., #M0202; 2000 units) was then added to a final volume of 21 μl in 1×T4 DNA Ligase Buffer (NEB, Ipwich, Mass., #B0202) or 1× Quick Ligase™ Buffer (NEB, Ipswich, Mass., #B2200).\nLigation reactions were incubated for 10 min at room temperature (25° C.) unless otherwise stated, then placed on ice for 2 min. In some experiments the ligase was heat-killed by incubation at 65° C. for 20 min. The ligation reactions were analyzed by 1% agarose gel electrophoresis to identify DNA species and determine the efficiency of […].\nA volume of 2 μl from each ligation reaction was incubated with 50 μl of chemically competent (NEB, Ipswich, Mass., #C2987I) or electrocompetent (NEB, Ipswich, Mass., #C2989K) DH5 alpha E. coli cells.\nas §1\nFor electrocompetent cell transformation protocols, the cell-DNA mixture was subjected to electroporation, immediately followed by the addition of 950 μl of pre-warmed 37° C. SOC medium, followed by a one hour 37° C. outgrowth period with agitation. Dilution, plating, incubation and colony quantification were performed as described in Example 1A above."}, "[3]": {"conditions": "1 fragment (AhdI-linearized pUC19)"}, "[4]": {"conditions": "insert 68mer cassette featuring No 5' PO4, 3' A overhang"}, "[5]": {"conditions": "insert 513 pb human genomic amplicon using Taq DNA polymerase"}}, "data": [{"smiles": "CC(O)CO", "note": "(stereo not drawn) [1,2-PrD, 1,2-propanediol]", "values": [{"measurement": "Ligation/Subsequent Transformation Enhancement", "setting": "T4 DNA ligase [1]; [3]", "value": "12-fold"}, {"measurement": "Ligation/Subsequent Transformation Enhancement", "setting": "T4 DNA ligase [1]; 2 fragments (BciVI-pUC19)", "value": "At least 35-fold"}, {"measurement": "Ligation/Subsequent Transformation Enhancement", "setting": "T4 DNA ligase [1]; 3 fragments (BccI-pUC19)", "value": "18-fold"}, {"measurement": "Transformation Efficiency +1,2-PrD", "setting": "T4 DNA ligase [1]; [3]", "value": 51.4, "unit": "× 10e^6/μg DNA"}, {"measurement": "Resultant Colonies +1,2-PrD", "setting": "T4 DNA ligase [1]; 1 fragment (AhdI-linearized pUC19), 2000 units T4 DNA ligase, 10 min 25 C", "value": 1027}, {"measurement": "Transformation Efficiency +1,2-PrD", "setting": "T4 DNA ligase [1]; 2 fragments (BciVI-pUC19)", "value": 1.8, "unit": "× 10e^6/μg DNA"}, {"measurement": "Resultant Colonies +1,2-PrD", "setting": "T4 DNA ligase [1]; 2 fragments (BciVI-pUC19)", "value": 35}, {"measurement": "Transformation Efficiency +1,2-PrD", "setting": "T4 DNA ligase [1]; 3 fragments (BccI-pUC19)", "value": 1.85, "unit": "× 10e^6/μg DNA"}, {"measurement": "Resultant Colonies +1,2-PrD", "setting": "T4 DNA ligase [1]; 3 fragments (BccI-pUC19)", "value": 37}, {"measurement": "Amount of ligated circularized plasmid on agarose gel", "setting": "T4 DNA ligase [1]; +/-12% 1,2-PrD, one, two and three pUC19 fragment sets (FIGS. 4A-C)", "value": "significant beneficial effect on the amount of ligated circularized plasmid"}, {"measurement": "Cloning Enhancement (chemical transformation)", "setting": "T4 DNA ligase [2]; [4]", "value": "14-fold"}, {"measurement": "Cloning Enhancement (electroporation)", "setting": "T4 DNA ligase [2]; [4]", "value": "2-fold"}, {"measurement": "Cloning Enhancement (chemical transformation)", "setting": "T4 DNA ligase [2]; [5]", "value": "At least 72-fold"}, {"measurement": "Cloning Enhancement (electroporation)", "setting": "T4 DNA ligase [2]; [5]", "value": "11-fold"}, {"measurement": "Colonies (chemical transformation)", "setting": "T4 DNA ligase [2]; insert 513 pb human genomic amplicon, 0 colonies without enhancer", "value": 72, "unit": "colonies)"}]}]}
